Laboratory results from ChEMBL document CHEMBL1201862, “PubChem BioAssay data set” (2004).
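Values below derive from 48-hour exposures of cells grown in 96-well plates, with endpoints linearly interpolated between the two concentrations bracketing the appropriate inhibition level. GI50: concentration for 50% inhibition of growth.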 Activity calls are given as the source filed them. Cut-off read from the data, not from the text of the source: active = GI50 up to about 1.1 µM and inactive = higher.

Tests used:
Assay in all cases: growth of human tumour cells (NCI), 48 h
COLO 205 = tested on: COLO 205
HOP-62 = tested on: HOP-62
SF-268 = tested on: SF-268
HL-60 = tested on: HL-60
RXF 393 = tested on: RXF 393
A549 = tested on: A549
HCT-116 = tested on: HCT-116
IGROV-1 = tested on: IGROV-1
UACC-257 = tested on: UACC-257
RPMI-8226 = tested on: RPMI-8226
UO-31 = tested on: UO-31
SF-295 = tested on: SF-295
OVCAR-4 = tested on: OVCAR-4
NCI-H460 = tested on: NCI-H460
DLD-1 = tested on: DLD-1
LOX IMVI = tested on: LOX IMVI
HT-29 = tested on: HT-29
NCI-H522 = tested on: NCI-H522
M19-MEL = tested on: M19-MEL
CAKI-1 = tested on: CAKI-1
NCI/ADR-RES = tested on: NCI/ADR-RES
SF-539 = tested on: SF-539
EKVX = tested on: EKVX
MOLT-4 = tested on: MOLT-4
KM12 = tested on: KM12
OVCAR-8 = tested on: OVCAR-8
NCI-H226 = tested on: NCI-H226
KM-20L2 = tested on: KM-20L2
HCT-15 = tested on: HCT-15
U-251 = tested on: U-251
SK-OV-3 = tested on: SK-OV-3
SW-620 = tested on: SW-620
Malme-3M = tested on: Malme-3M
DMS-273 = tested on: DMS-273
SNB-75 = tested on: SNB-75
CCRF-CEM = tested on: CCRF-CEM
SN12C = tested on: SN12C
SK-MEL-2 = tested on: SK-MEL-2
UACC-62 = tested on: UACC-62
HCC 2998 = tested on: HCC 2998
XF498 = tested on: XF498
OVCAR-3 = tested on: OVCAR-3
OVCAR-5 = tested on: OVCAR-5
SK-MEL-5 = tested on: SK-MEL-5
K562 = tested on: K562
HOP-92 = tested on: HOP-92
SK-MEL-28 = tested on: SK-MEL-28
DMS-114 = tested on: DMS-114
MCF7 = tested on: MCF7
SNB-19 = tested on: SNB-19
NCI-H23 = tested on: NCI-H23
SNB-78 = tested on: SNB-78
A498 = tested on: A498
HOP-18 = tested on: HOP-18
M14 = tested on: M14
LXFL 529 = tested on: LXFL 529
TK-10 = tested on: TK-10
ACHN = tested on: ACHN
786-0 = tested on: 786-0

SMILES: Nc1ncnc2c1ncn2C1CCC(CO)O1 (stereo not given)
- GI50 (COLO 205): > 100 µM (inactive)
- GI50 (HOP-62): > 100 µM (inactive)
- GI50 (SF-268): > 60.5 µM (inactive)
- GI50 (HL-60): > 100 µM (inactive)
- GI50 (RXF 393): > 100 µM (inactive)
- GI50 (A549): > 100 µM (inactive)
- GI50 (HCT-116): > 100 µM (inactive)
- GI50 (IGROV-1): > 100 µM (inactive)
- GI50 (UACC-257): > 100 µM (inactive)
- GI50 (RPMI-8226): > 100 µM (inactive)
- GI50 (UO-31): > 100 µM (inactive)
- GI50 (SF-295): > 79.4 µM (inactive)
- GI50 (OVCAR-4): > 82.8 µM (inactive)
- GI50 (NCI-H460): > 100 µM (inactive)
- GI50 (DLD-1): > 100 µM (inactive)
- GI50 (LOX IMVI): > 100 µM (inactive)
- GI50 (HT-29): > 61.1 µM (inactive)
- GI50 (NCI-H522): > 100 µM (inactive)
- GI50 (M19-MEL): > 100 µM (inactive)
- GI50 (CAKI-1): > 100 µM (inactive)
- GI50 (NCI/ADR-RES): > 77.4 µM (inactive)
- GI50 (SF-539): > 100 µM (inactive)
- GI50 (EKVX): > 87.3 µM (inactive)
- GI50 (MOLT-4): > 100 µM (inactive)
- GI50 (KM12): > 100 µM (inactive)
- GI50 (OVCAR-8): > 79.4 µM (inactive)
- GI50 (NCI-H226): > 67.9 µM (inactive)
- GI50 (KM-20L2): > 100 µM (inactive)
- GI50 (HCT-15): > 100 µM
- GI50 (U-251): > 100 µM (inactive)
- GI50 (SK-OV-3): > 77.6 µM (inactive)
- GI50 (SW-620): > 100 µM (inactive)
- GI50 (Malme-3M): > 100 µM (inactive)
- GI50 (DMS-273): > 100 µM (inactive)
- GI50 (SNB-75): > 100 µM (inactive)
- GI50 (CCRF-CEM): > 100 µM (inactive)
- GI50 (SN12C): > 100 µM (inactive)
- GI50 (SK-MEL-2): > 100 µM (inactive)
- GI50 (UACC-62): > 100 µM (inactive)
- GI50 (HCC 2998): > 77.4 µM (inactive)
- GI50 (XF498): > 90.8 µM (inactive)
- GI50 (OVCAR-3): > 100 µM (inactive)
- GI50 (OVCAR-5): > 100 µM (inactive)
- GI50 (SK-MEL-5): > 100 µM (inactive)
- GI50 (K562): > 100 µM (inactive)
- GI50 (HOP-92): > 79.8 µM (inactive)
- GI50 (SK-MEL-28): > 63.2 µM (inactive)
- GI50 (DMS-114): > 55.6 µM (inactive)
- GI50 (MCF7): > 100 µM (inactive)
- GI50 (SNB-19): > 100 µM (inactive)
- GI50 (NCI-H23): > 66.7 µM (inactive)
- GI50 (SNB-78): > 100 µM (inactive)
- GI50 (A498): > 85.1 µM (inactive)
- GI50 (HOP-18): > 100 µM (inactive)

SMILES: C=CCn1c(=O)n(CC=C)c(=O)n(CC=C)c1=O
- GI50 (COLO 205): > 100 µM (inactive)
- GI50 (HOP-62): > 100 µM (inactive)
- GI50 (SF-268): > 100 µM (inactive)
- GI50 (HL-60): > 100 µM (inactive)
- GI50 (RXF 393): > 100 µM (inactive)
- GI50 (A549): > 100 µM (inactive)
- GI50 (M14): > 100 µM (inactive)
- GI50 (HCT-116): > 100 µM (inactive)
- GI50 (IGROV-1): > 100 µM (inactive)
- GI50 (UACC-257): > 100 µM (inactive)
- GI50 (RPMI-8226): > 100 µM (inactive)
- GI50 (UO-31): > 100 µM (inactive)
- GI50 (SF-295): > 100 µM (inactive)
- GI50 (NCI-H460): > 100 µM (inactive)
- GI50 (DLD-1): > 100 µM (inactive)
- GI50 (LOX IMVI): > 100 µM (inactive)
- GI50 (NCI-H522): > 100 µM (inactive)
- GI50 (LXFL 529): > 100 µM (inactive)
- GI50 (M19-MEL): > 100 µM (inactive)
- GI50 (SF-539): > 100 µM (inactive)
- GI50 (EKVX): > 100 µM (inactive)
- GI50 (MOLT-4): > 100 µM (inactive)
- GI50 (KM12): > 100 µM (inactive)
- GI50 (OVCAR-8): > 100 µM (inactive)
- GI50 (KM-20L2): > 100 µM (inactive)
- GI50 (HCT-15): > 100 µM
- GI50 (U-251): > 100 µM (inactive)
- GI50 (SK-OV-3): > 100 µM (inactive)
- GI50 (SW-620): > 100 µM (inactive)
- GI50 (Malme-3M): > 100 µM (inactive)
- GI50 (DMS-273): > 100 µM (inactive)
- GI50 (CCRF-CEM): > 100 µM (inactive)
- GI50 (SN12C): > 100 µM (inactive)
- GI50 (SK-MEL-2): > 100 µM (inactive)
- GI50 (UACC-62): > 100 µM (inactive)
- GI50 (HCC 2998): > 100 µM (inactive)
- GI50 (OVCAR-3): > 100 µM (inactive)
- GI50 (OVCAR-5): > 100 µM (inactive)
- GI50 (TK-10): > 100 µM (inactive)
- GI50 (ACHN): > 100 µM (inactive)
- GI50 (SK-MEL-5): > 100 µM (inactive)
- GI50 (K562): > 100 µM (inactive)
- GI50 (HOP-92): > 100 µM (inactive)
- GI50 (SK-MEL-28): > 100 µM (inactive)
- GI50 (DMS-114): > 100 µM (inactive)
- GI50 (786-0): > 100 µM (inactive)
- GI50 (SNB-19): > 100 µM (inactive)
- GI50 (NCI-H23): > 100 µM (inactive)
- GI50 (SNB-78): > 100 µM (inactive)
- GI50 (A498): > 100 µM (inactive)
- GI50 (HOP-18): > 100 µM (inactive)
